Data reported in ChEMBL document CHEMBL1649420, “Identifying chelators for metalloprotein inhibitors using a fragment-based approach” (J Med Chem, 2011).

What was measured:
[1] = biological target: Matrix metalloproteinase-9 (Homo sapiens) (UniProt P14780); settings: at 1 mM;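 further: recombinant human MMP9, activity read after 30 min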
[2] = biological target: T1, Nitric oxide synthase, inducible (Mus musculus) (UniProt P29477); settings: at 1 mM;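 further: recombinant enzyme, activity read out colorimetrically after 40 min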
T1 sequence (whole entry): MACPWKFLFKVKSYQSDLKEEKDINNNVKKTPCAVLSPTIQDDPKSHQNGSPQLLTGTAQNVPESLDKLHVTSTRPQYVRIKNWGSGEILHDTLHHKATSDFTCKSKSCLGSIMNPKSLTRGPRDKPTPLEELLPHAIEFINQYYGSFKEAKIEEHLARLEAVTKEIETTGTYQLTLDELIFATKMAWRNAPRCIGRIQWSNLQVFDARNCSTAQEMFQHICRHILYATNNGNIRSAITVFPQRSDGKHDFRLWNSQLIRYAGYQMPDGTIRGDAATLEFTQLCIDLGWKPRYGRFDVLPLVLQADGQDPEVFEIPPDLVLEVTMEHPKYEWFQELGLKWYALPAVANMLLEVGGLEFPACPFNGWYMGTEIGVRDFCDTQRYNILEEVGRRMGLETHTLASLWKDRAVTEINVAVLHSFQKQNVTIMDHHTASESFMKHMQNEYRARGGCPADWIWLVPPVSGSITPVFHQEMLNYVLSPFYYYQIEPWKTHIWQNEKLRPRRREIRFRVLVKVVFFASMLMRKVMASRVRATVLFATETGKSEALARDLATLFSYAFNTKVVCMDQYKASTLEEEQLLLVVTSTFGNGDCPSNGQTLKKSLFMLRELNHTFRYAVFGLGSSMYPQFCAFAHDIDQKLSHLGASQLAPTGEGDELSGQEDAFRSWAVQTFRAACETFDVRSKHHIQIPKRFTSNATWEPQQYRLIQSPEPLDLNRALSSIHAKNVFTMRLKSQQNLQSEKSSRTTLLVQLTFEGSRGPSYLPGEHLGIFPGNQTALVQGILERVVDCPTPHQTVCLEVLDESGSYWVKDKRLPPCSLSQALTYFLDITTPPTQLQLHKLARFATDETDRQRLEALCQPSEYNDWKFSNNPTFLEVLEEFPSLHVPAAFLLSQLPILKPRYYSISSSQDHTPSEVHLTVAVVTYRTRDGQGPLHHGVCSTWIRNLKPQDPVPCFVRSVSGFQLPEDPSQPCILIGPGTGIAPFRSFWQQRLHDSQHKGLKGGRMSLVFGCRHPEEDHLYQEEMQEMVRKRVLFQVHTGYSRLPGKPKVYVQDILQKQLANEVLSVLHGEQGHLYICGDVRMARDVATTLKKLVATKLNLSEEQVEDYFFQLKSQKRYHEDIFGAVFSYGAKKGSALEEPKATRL

[3] = biological target: 72 kDa type IV collagenase (Homo sapiens, UniProt P08253); settings: at 1 mM;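 further: recombinant human enzyme, inhibition read after a 30 min incubation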
[4] = biological target: T2, Polyunsaturated fatty acid 5-lipoxygenase (Homo sapiens) (UniProt P09917); assay: Inhibition of human recombinant 5-lipoxygenase at 1 mM after 10 mins by fluorescence assay
T2 sequence (whole entry): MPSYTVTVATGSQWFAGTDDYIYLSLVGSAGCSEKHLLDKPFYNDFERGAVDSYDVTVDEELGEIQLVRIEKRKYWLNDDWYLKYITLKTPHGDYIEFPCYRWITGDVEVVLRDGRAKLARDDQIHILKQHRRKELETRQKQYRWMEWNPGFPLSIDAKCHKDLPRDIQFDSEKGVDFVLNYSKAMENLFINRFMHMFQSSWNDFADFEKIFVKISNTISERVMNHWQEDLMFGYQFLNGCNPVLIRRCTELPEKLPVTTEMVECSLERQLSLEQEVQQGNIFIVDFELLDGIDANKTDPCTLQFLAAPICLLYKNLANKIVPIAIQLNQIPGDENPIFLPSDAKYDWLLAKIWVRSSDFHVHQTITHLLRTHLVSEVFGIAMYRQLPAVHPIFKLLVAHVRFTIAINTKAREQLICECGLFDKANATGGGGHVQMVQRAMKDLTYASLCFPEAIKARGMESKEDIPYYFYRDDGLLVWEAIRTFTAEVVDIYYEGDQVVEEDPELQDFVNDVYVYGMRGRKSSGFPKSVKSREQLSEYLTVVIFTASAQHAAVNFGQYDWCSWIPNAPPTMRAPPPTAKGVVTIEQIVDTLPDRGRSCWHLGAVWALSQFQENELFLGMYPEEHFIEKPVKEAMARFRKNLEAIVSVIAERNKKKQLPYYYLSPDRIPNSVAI

[5] = biological target: T3, Interstitial collagenase (Homo sapiens) (UniProt P03956); settings: at 1 mM;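 further: recombinant human enzyme, with inhibition measured after 30 min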
T3 sequence (whole entry): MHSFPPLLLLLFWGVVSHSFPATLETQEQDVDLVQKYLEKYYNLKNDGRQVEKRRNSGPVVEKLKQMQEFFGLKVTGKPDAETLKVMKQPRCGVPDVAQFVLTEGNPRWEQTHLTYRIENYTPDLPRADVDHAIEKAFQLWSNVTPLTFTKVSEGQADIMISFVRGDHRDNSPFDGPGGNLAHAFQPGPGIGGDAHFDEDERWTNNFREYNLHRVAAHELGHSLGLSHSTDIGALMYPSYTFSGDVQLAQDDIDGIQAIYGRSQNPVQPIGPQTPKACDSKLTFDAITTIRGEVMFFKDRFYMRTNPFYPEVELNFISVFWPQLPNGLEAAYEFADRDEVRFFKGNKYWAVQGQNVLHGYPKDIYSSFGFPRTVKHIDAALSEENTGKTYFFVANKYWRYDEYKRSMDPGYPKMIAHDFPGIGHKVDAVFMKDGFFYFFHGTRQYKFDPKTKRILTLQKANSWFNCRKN

[6] = biological target: T4, Tyrosinase (Agaricus bisporus) (UniProt O42713); settings: at 1 mM;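 further: inhibition measured at 10 min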
T4 sequence (whole entry): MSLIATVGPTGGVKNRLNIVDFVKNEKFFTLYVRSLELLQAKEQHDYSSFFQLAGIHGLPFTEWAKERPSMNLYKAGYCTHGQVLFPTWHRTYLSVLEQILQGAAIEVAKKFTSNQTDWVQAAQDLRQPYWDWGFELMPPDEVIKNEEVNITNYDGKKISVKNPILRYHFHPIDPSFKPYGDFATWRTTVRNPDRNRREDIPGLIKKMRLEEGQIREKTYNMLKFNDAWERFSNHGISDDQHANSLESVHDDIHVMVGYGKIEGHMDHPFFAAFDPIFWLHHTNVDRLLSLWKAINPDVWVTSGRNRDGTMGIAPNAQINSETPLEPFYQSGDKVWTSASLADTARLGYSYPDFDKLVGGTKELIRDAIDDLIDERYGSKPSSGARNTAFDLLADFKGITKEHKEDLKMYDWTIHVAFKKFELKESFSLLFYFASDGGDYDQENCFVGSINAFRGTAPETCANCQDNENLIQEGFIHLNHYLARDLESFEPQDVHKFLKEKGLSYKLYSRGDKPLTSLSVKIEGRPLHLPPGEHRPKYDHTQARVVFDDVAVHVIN

[7] = biological target: Stromelysin-1 (Homo sapiens) (UniProt P08254); settings: at 1 mM;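 further: recombinant enzyme, inhibition read after a 30 min incubation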
Stromelysin-1 (Homo sapiens), sequence (P08254 100-477 limits assumed): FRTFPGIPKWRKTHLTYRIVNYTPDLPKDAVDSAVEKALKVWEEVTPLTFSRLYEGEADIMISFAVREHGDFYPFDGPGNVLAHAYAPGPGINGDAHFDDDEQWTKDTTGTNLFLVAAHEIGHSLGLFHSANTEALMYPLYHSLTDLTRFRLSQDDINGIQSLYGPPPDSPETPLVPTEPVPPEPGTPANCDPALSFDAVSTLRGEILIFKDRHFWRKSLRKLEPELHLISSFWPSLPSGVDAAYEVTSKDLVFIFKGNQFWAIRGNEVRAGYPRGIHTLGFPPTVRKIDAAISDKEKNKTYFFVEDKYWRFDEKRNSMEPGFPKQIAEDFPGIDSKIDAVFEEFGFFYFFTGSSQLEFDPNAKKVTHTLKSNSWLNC

Matrix metalloproteinase-9 (Homo sapiens), sequence (P14780 whole entry): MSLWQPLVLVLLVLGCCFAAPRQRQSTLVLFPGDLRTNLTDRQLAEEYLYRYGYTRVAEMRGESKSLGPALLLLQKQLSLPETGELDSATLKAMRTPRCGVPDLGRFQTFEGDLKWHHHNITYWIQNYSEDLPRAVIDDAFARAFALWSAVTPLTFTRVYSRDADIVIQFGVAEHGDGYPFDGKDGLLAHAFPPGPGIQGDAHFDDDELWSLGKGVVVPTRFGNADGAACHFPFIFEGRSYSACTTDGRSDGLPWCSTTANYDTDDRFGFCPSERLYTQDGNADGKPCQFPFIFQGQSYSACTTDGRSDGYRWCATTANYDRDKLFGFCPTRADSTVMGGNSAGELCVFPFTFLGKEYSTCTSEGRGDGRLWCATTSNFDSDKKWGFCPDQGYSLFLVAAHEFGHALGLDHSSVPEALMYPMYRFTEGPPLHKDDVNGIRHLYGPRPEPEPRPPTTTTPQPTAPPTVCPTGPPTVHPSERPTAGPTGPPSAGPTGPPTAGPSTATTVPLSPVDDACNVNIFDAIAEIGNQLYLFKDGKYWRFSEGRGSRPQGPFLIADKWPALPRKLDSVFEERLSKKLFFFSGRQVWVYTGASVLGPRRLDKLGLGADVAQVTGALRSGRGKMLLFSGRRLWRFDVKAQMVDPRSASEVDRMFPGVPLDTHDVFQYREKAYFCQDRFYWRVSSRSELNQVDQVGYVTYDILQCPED
72 kDa type IV collagenase, sequence (P08253 110-660 limits assumed): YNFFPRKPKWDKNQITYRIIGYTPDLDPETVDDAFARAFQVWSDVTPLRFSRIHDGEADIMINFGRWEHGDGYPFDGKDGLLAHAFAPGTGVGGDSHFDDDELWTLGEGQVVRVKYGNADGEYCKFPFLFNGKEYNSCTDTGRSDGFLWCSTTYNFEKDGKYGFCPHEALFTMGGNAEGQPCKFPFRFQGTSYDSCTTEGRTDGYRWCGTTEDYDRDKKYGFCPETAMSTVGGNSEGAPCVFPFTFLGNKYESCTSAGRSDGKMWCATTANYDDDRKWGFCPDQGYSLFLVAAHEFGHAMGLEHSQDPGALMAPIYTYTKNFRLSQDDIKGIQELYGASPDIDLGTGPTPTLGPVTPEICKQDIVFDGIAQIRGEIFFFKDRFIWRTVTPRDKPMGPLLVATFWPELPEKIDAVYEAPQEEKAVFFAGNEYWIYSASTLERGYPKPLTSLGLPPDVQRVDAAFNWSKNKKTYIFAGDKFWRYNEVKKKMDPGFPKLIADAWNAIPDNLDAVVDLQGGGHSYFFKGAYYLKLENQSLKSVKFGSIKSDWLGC

SMILES | inhibition [1] [%] | inhibition [2] [%] | inhibition [3] [%] | inhibition [4] [%] | inhibition [5] [%] | inhibition [6] [%] | inhibition [7] [%]
Oc1ncccn1 | 51 | 6 | 24 | 8 | 100 | 92 | 49
C1CNCCNCCN1 | 100 | 0 | 100 | 25 | 105 | 68 | 48
CC(=O)C(C)C(C)=O | -4 | 7 | -3 | 64 | 10 | 67 | -1
O=C(O)c1ccc(C(=O)O)nc1 | -2 | -4 | -5 | 31 | 0 | 98 | 91
[O-][n+]1cccc2cccc(O)c21 | 67 | 28 | 62 | 66 | 70 | 29 | 81
O=C(O)c1ccccn1 | 0 | 6 | 25 | 16 | 3 | 74 | 99
Nc1ccc(C(=O)O)c(O)c1 | 24 | 8 | -1 | 60 | -7 | 55 | 4
Nc1[nH]cnc2ncnc1-2 | -3 | 6 | -1 | 9 | 17 | 11 | 10
O=c1ccocc1O | 45 | 22 | 48 | 81 | 48 | 38 | 35
O=C(O)c1cccc(O)c1O | 11 | 2 | -1 | 80 | 17 | 88 | -1
O=C(O)c1cccc(Br)n1 | 4 | 17 | -4 | 29 | 11 | 90 | 18
Cc1ccc(O)c(C(=O)O)c1 | 2 | 21 | 65 | 17 | 28 | 98 | 76
Cc1cc(=O)c(O)c(CCl)o1 | 41 | 6 | 44 | 72 | 53 | 96 | 59
O=c1cc(CCl)occ1O | 42 | 63 | 65 | 87 | 67 | 94 | 68
O=C(O)c1ncccc1O | 19 | 46 | 58 | 17 | 55 | 87 | 56
Cc1occ(O)c(=O)c1C(=O)O | 51 | 17 | 56 | 80 | 60 | 96 | 80
Cc1cc(O)nc(C)n1 | 1 | 8 | 2 | 26 | 10 | -10 | 6
O=C(O)c1cccc[n+]1[O-] | 8 | -1 | 1 | 31 | 10 | 88 | 18
O=c1occcc1O | 70 | 42 | 66 | 77 | 74 | 77 | 72
O=C(O)c1ccc(F)cc1O | 5 | 1 | -8 | 31 | 14 | 97 | -2
O=c1cccccc1O [TROPOLONE] | 91 | 9 | 89 | -3 | 100 | 90 | 95
Cc1nc(O)nc(O)c1C | -4 | 46 | 5 | 33 | 11 | 32 | 10
c1ccc(CNCc2ccccn2)nc1 | 84 | -2 | 100 | 29 | 73 | 69 | 93
CCCCc1ccc(C(=O)O)nc1 | 18 | 10 | 43 | 23 | 58 | 75 | 80
Cc1ccc(S(N)(=O)=O)cc1 | -7 | -5 | -2 | 25 | 11 | 70 | -5
